The assay has as its target T1, horseradish peroxidase (HRP) (Armoracia rusticana, UniProt P00433).
T1 sequence (P00433 31-353): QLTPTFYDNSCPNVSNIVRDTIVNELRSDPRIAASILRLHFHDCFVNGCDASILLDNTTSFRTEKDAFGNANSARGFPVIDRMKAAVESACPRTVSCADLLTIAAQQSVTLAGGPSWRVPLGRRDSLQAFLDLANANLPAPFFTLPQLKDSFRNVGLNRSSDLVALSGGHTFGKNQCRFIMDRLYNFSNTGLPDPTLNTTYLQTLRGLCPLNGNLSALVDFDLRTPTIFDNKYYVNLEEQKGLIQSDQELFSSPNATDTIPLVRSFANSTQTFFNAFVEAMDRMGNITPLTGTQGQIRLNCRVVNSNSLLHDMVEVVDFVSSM
The method, then:
A standardized test procedure for measuring luminol light output has been established. To 0.5 ml of 50 mM borate buffer, pH 9.4, are added 0.5 ml of 40 mM luminol in 45 mM NaOH, pH 11.0; 0.5 ml of 4 mM hydrogen peroxide in 0.01M phosphate buffered saline (PBS), pH 7.0; 0.4 ml of deionized water; and 0.1 ml of 200 mU/ml horseradish peroxidase (HRP) to yield a final 2.0 ml volume containing; 10 mM luminol; 1 mM H2 O2; 12.5 mM borate buffer, pH 9.4; and 20 mU HRP in an aqueous solution having a final pH of 9.4. The enzyme HRP is added last, the solution mixed and relative intensity readings taken on an Ames Fluorocolorimeter (Miles Labs, Inc., Elkhart, IN) at various time points from 1 minute to 2 hours.
The chemical synthesis of luminol and other luminescent substrates use chemicals which can inhibit the catalysts used in luminescent reactions. Two of these inhibitory chemicals known to be used in luminol synthesis were added back to a luminescent reaction using the luminol prepared in Example 1 above.

Like-named read-outs stand apart in the source and are kept apart here.

In the case of `N.N.O=S(=O)(O)O` [Ammonium Sulfate, ammonium sulfate], the “Effect on luminescence yield in the reaction” value (from here on “Effect on luminescence yield”) is “had no effect”. The “% Reaction” value (hrp luminol luminescence, pH 9.4, 30 min) worked out at 100%.
As for `NN.O=S(=O)(O)O` [Hydrazine Sulfate, hydrazine sulfate], the “Amount in the luminol that can inhibit the production of light” value was “greater than 100 ppm”. Moreover, the “Effect on luminescence yield” value (in words) is listed as “drastically inhibits”.
With ammonium sulfide, the “Amount in the luminol that can inhibit the production of light” value is reported as “greater than 100 ppm”. Further, where the note is “in words”, the “Effect on luminescence yield” value is reported as “drastically inhibits”.
